Test results taken from patent publication EP3436024B1, “3-BETA-METHOXY-PREG FOR USE IN THE TREATMENT OF TREATMENT RESISTANT DEPRESSION” (Mapreg, priority 2016, dated 2017).

Molecular target: T1, Glucorticoid Receptor (GR) (Homo sapiens, UniProt P04150)
T1 construct: Human HeLa S3 cells; endogenous in cells; host or cells: HeLa S3
Assay: Radioligand binding assay, steroid hormone receptor GR
Settings: MAP4343 10 µM; 3 nM [^3H] Dexamethasone; Human HeLa S3 cells
Experimental: Binding affinity of 3β-methoxy-PREG (MAP4343) for receptors of steroid hormones was evaluated using radioligand binding assays.
Table 3. Affinity of MAP4343 (10 µM) for steroid hormones receptors measured by radioligand binding assays. […] None of the results met significance criteria at concentrations used.

T1 sequence (P04150 whole entry): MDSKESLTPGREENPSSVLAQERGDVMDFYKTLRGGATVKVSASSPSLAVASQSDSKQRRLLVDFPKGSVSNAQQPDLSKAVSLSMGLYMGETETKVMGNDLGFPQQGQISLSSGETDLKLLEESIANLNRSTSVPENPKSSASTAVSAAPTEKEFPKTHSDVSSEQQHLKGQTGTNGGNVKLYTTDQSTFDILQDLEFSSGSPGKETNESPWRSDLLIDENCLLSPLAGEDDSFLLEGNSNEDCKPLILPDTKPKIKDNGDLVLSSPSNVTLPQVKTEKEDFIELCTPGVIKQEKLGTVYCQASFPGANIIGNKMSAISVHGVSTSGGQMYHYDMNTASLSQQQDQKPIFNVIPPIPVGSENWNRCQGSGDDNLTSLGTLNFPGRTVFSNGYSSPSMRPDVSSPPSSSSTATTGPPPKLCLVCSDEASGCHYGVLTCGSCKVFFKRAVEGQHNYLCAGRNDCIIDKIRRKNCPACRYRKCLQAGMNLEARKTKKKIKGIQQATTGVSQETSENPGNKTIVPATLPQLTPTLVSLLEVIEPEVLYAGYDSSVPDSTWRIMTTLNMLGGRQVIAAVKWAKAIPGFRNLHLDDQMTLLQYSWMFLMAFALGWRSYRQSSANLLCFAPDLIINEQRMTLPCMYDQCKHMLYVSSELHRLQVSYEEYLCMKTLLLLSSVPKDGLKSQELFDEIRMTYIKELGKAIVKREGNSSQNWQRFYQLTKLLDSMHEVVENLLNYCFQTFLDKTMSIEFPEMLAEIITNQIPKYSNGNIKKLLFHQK

In the case of `CO[C@H]1CC[C@@]2(C)C(=CC[C@H]3[C@@H]4CC[C@H](C(C)=O)[C@@]4(C)CC[C@@H]32)C1` (stereo in doubt) [MAP4343, 3β-methoxy-pregna-5-ene-20-one], the “% inhibition” value was 21% and the inhibition at 10 µM was < 25%.
